How the values were obtained:
[1] = target: T1, Staphylococcus aureus lipase (SAL) (Staphylococcus aureus, UniProt A0A0U1MWF9); assay: p-nitrophenyl butyrate hydrolysis, absorbance […] nm; type: biochemical
T1 construct: gene lip; one Ca and one Zn per monomer

[2] = target: Staphylococcus aureus lipase (Staphylococcus aureus); assay: SEC + other: SEC-SAXS

`CCCCCCCCCCC/C=C\CCCCC(=O)O` [PSA, petroselinic acid] showed an IC50 [1] of 3.4 µM.
`CCCCCCCCCCC/C=C\CCCCC(=O)OC` [PSM, petroselinic acid methyl ester] showed an IC50 [1] of 10.5 µM.
In the case of “Staphylococcus aureus lipase (from UniProt A0A1R3UHM3 1-645) (enzyme)”, the stoichiometry N [2] is reported as 2.

Reference: article PMC11148114 (FEBS Open Bio, 2024)
